Laboratory results published in US7897727B2, “Bioactive peptide for cell adhesion” (University of Delaware, priority 2000, dated 2011).
Entries after “also recorded” stand apart in the source; their conditions may differ. No end group written: not given here.

Key:
[1] = test system: HES cells; experiment: Cell adhesion assay on coated 96 well plates (MTS), HES cells; type: cell-based, human; conditions: peptide conjugated to BSA coated on MAXISORP plates; 1 hr attachment at 37° C.; serum-free RPMI 1640
Description: (§1) Concentrated stocks of rat-tail type I collagen were diluted to designated concentrations in 0.02 N acetic acid and coated overnight on MAXISORP® 96 well plates at room temperature (RT). Poly-L-lysine (PLL), heat-denatured bovine serum albumin (BSA), the peptide of SEQ ID NO:1 conjugated to BSA (indicated in FIGS. 4-7 as “PLN4”) and a scrambled peptide from domain IV of perlecan having the amino acid sequence TGKSVGGSLIWPVRGQH (SEQ ID NO:4) conjugated to BSA (indicated in FIGS. 4-7 as “PLN4*”) were diluted in 1×phosphate buffered saline (PBS) and also coated overnight on MAXISORP® 96 well plates at RT. The following day, the plates were washed three times with 1×PBS to remove any residue and blocked with 1% heat-denatured BSA for 1 hr at 37° C. Following blocking, plates were washed once with 1×PBS. Cells from various cell lines were harvested with 0.5 mM EDTA and collected by centrifugation. Pelleted cells were resuspended in serum-free RPMI 1640 and plated at a concentration of 2.5×10^4 cells per 100 μl. Cells were allowed to attach to the wells for 1 hr at 37° C. Next, the wells were washed once with 1% heat-denatured BSA to remove any unattached cells. Cell adhesion was quantified as in Example 1, using the CELLTITER 96® AQueous Non-Radioactive Cell Proliferation Assay (MTS). […] Following incubation, an Elisa plate reader was used to measure optical density. […]

[2] = test system: PC3 cells; experiment: Cell adhesion assay on coated 96 well plates (MTS), PC3 cells; type: cell-based; conditions: peptide conjugated to BSA coated on MAXISORP plates; 1 hr attachment at 37° C.; serum-free RPMI 1640
Description: as §1

[3] = test system: marrow stromal cells HS27a; experiment: Cell adhesion assay on coated 96 well plates (MTS), HS27a cells; type: cell-based; conditions: peptide conjugated to BSA coated on MAXISORP plates; 1 hr attachment at 37° C.; serum-free RPMI 1640
Description: as §1

[4] = test system: marrow stromal cells HS5; experiment: Cell adhesion assay on coated 96 well plates (MTS), HS5 cells; type: cell-based; conditions: peptide conjugated to BSA coated on MAXISORP plates; 1 hr attachment at 37° C.; serum-free RPMI 1640
Description: as §1

[5] = test system: multipotent mouse mesenchymal stem cells, 10T1/2; experiment: Cell adhesion of 10T1/2 cells to coated plastic (CELLTITER 96 MTS assay); type: cell-based
Description: Adhesion is measured by the cell proliferation assay CELLTITER 96® AQueous Non-Radioactive Cell Proliferation Assay (MTS) sold by Promega, Inc. The CELLTITER 96® AQueous Non-Radioactive Cell Proliferation Assay is a calorimetric method for determining the number of viable cells in proliferation, cytotoxicity or chemosensitivity assays. The CELLTITER 96® AQueous Non-Radioactive Cell Proliferation Assay is composed of solutions of a tetrazolium compound (3-(4,5-dimethylthiazol-2-yl)-5-(3-carboxymethoxyphenyl)-2-(4-su-lfophenyl)-2H-tetrazolium, inner salt; MTS) and an electron coupling reagent (phenazine methosulfate) PMS. MTS is bioreduced by cells into a formazan that is soluble in tissue culture medium. The absorbance of the formazan at 490 nm can be measured directly from 96 well assay plates without additional processing. The conversion of MTS into the aqueous soluble formazan is accomplished by dehydrogenase enzymes found in metabolically active cells. The quantity of formazan product as measured by the amount of 490 nm absorbance is directly proportional to the number of living cells in culture.
No adhesion to uncoated plastic occurred during the 30 minute time period of this study. BSA (bovine serum albumin) and poly-L-lysine (PLL) were used as coating controls. Collagen I, a known adhesive protein substrate for these cells, served as positive control. […]

| Sequence | cell adhesion / attachment and spreading, HES cells [1] | cell adhesion / attachment and spreading, PC3 cells [2] | cell adhesion / attachment and spreading, HS27a cells [3] | cell adhesion / attachment and spreading, HS5 cells [4] | adhesion of 10T1/2 cells ([5]; peptide conjugated to BSA, coated onto plastic, 30 minute time period, MTS absorbance 490 nm, listed as SEQ ID NO:1) | focal adhesion formation of 10T1/2 cells (photomicrographs) ([5]; plastic coated with BSA conjugated to the polypeptide) |
| --- | --- | --- | --- | --- | --- | --- |
| TGKSVGGSLIWPVRGQH (also: conjugated to BSA) [PLN4*, scrambled peptide from domain IV of perlecan, conjugated to BSA, reference compound] | cell attachment and spreading did not occur | cell attachment and spreading did not occur | cell attachment and spreading did not occur | cell attachment and spreading did not occur |  |  |
| TWSKVGGHLRPGIVQSG (also: conjugated to BSA; listed as Homo sapiens) [PLN4, adhesive polypeptide derived from domain IV of perlecan; tested conjugated to BSA] | best adhesion and rapid focal adhesion formation of these four cell types | best adhesion and rapid focal adhesion formation of these four cell types | did not bind to the peptide | did not bind to the peptide | consistently strong; also recorded: best adhesion of the cell types reported herein | adhesion is followed by focal adhesion formation |
